Data published in ChEMBL document CHEMBL1201862, “PubChem BioAssay data set” (2004).
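Test compounds were applied to cells in 96-well plates for 48 hours at 5 doses. At the GI50, growth is halved.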 Active and inactive are the calls of the source. Rule as the data show it: active = GI50 up to about 1.1 µM and inactive = higher.

How the values were obtained:
Assay in all cases: NCI tumour cell line growth inhibition, 48 h
[1] = test system: KM12
[2] = test system: PC-3
[3] = test system: SK-OV-3
[4] = test system: IGROV-1
[5] = test system: HT-29
[6] = test system: TK-10
[7] = test system: SK-MEL-5
[8] = test system: OVCAR-4
[9] = test system: OVCAR-8
[10] = test system: SNB-19
[11] = test system: CCRF-CEM
[12] = test system: M14
[13] = test system: SF-268
[14] = test system: A498
[15] = test system: MDA-MB-435
[16] = test system: SR
[17] = test system: OVCAR-3
[18] = test system: SF-539
[19] = test system: RPMI-8226
[20] = test system: RXF 393

Structure (SMILES)	GI50 [1]	GI50 [2]	GI50 [3]	GI50 [4]	GI50 [5]	GI50 [6]	GI50 [7]	GI50 [8]	GI50 [9]	GI50 [10]	GI50 [11]	GI50 [12]	GI50 [13]	GI50 [14]	GI50 [15]	GI50 [16]	GI50 [17]	GI50 [18]	GI50 [19]	GI50 [20]
COc1cccc(N2C(=O)CSC2c2cc(OC)c(OC)c(OC)c2)c1 (stereo not given)	12.2 µM (inactive)	55.1 µM (inactive)	26.7 µM (inactive)	44.6 µM (inactive)	33.1 µM (inactive)	> 100 µM (inactive)	19.8 µM (inactive)	47.3 µM (inactive)	36 µM (inactive)	23.1 µM (inactive)	19.1 µM (inactive)	27.7 µM (inactive)	> 100 µM (inactive)	> 100 µM (inactive)	3.85 µM (inactive)	5.75 µM (inactive)	20.7 µM (inactive)	24.5 µM (inactive)	29 µM (inactive)	
O=C1/C(=C/c2ccc(Cl)cc2)CCCc2ccccc21	15.2 µM (inactive)	19.6 µM (inactive)	43.1 µM (inactive)	18.2 µM (inactive)	4.67 µM (inactive)	21.6 µM (inactive)		14.9 µM (inactive)	17.2 µM (inactive)	18.4 µM (inactive)	12.5 µM (inactive)	15.6 µM (inactive)	13.9 µM (inactive)		17.1 µM (inactive)	13.6 µM (inactive)	18.9 µM (inactive)	17.9 µM (inactive)	12.8 µM (inactive)	
COc1cccc(/C=C2\CCCCCC2=O)c1	65.5 µM (inactive)	> 100 µM (inactive)	> 100 µM (inactive)	> 100 µM (inactive)	> 100 µM (inactive)	> 100 µM (inactive)	70.1 µM (inactive)	> 100 µM (inactive)		19.7 µM (inactive)		> 100 µM (inactive)	> 100 µM (inactive)	> 100 µM (inactive)	48.1 µM (inactive)	26.7 µM (inactive)	> 100 µM (inactive)		31 µM (inactive)	
COc1ccc(-c2oc3c(CC(=O)O)cccc3c(=O)c2OC)cc1		> 100 µM (inactive)	> 100 µM (inactive)	> 100 µM (inactive)	> 100 µM (inactive)	> 100 µM (inactive)	> 100 µM (inactive)		> 100 µM (inactive)		> 100 µM (inactive)	> 100 µM (inactive)	> 100 µM (inactive)	> 100 µM (inactive)	> 100 µM (inactive)	> 100 µM (inactive)	> 100 µM (inactive)	> 100 µM (inactive)		> 100 µM (inactive)
O=C1Nc2ccc(Br)cc2/C1=N/NC(=S)Nc1ccc([N+](=O)[O-])cc1	5.94 µM (inactive)	7.13 µM (inactive)	12.7 µM (inactive)	5.08 µM (inactive)	7.71 µM (inactive)	14.5 µM (inactive)	7.74 µM (inactive)	6.11 µM (inactive)	6.37 µM (inactive)				9.04 µM (inactive)	5.56 µM (inactive)	6.41 µM (inactive)	5.05 µM (inactive)	6.65 µM (inactive)	20.2 µM (inactive)		11.8 µM (inactive)
O=S(=O)(Nc1nccs1)c1ccc(Nc2nc(-c3cccs3)nc3ccc(I)cc23)cc1	7.36 µM (inactive)	5.12 µM (inactive)	24.7 µM (inactive)	17.4 µM (inactive)	18.7 µM (inactive)	9.51 µM (inactive)	8.18 µM (inactive)	26.9 µM (inactive)	22.2 µM (inactive)	14.5 µM (inactive)	3.48 µM (inactive)	22.4 µM (inactive)	12.6 µM (inactive)		11.8 µM (inactive)	22.9 µM (inactive)	14.2 µM (inactive)	17.8 µM (inactive)	4.74 µM (inactive)	36.5 µM (inactive)
Nc1ccn([C@@H]2C=C(CO)[C@@H](O)[C@H]2O)c(=O)n1	0.143 µM (active)	0.0555 µM (active)	0.248 µM (active)	0.108 µM (active)	0.11 µM (active)	1.05 µM (active)	1.06 µM (active)	0.216 µM (active)	0.0817 µM (active)	0.244 µM (active)	0.0617 µM (active)	0.186 µM (active)	0.269 µM (active)	1.84 µM (inactive)	0.05 µM (active)	0.00946 µM (active)	2.2 µM (inactive)	0.254 µM (active)		0.53 µM (active)
CC1=C2CC3=C(C)C(=O)O[C@H]3C[C@@H](C)[C@@H]2CC1 [AMERICANOLIDE D]	7.48 µM (inactive)	> 100 µM (inactive)	> 100 µM (inactive)	> 100 µM (inactive)	85.9 µM (inactive)	> 100 µM (inactive)	91.8 µM (inactive)	> 100 µM (inactive)	> 100 µM (inactive)	> 100 µM (inactive)	76.2 µM (inactive)	> 100 µM (inactive)	> 100 µM (inactive)	> 100 µM (inactive)	> 100 µM (inactive)	62.1 µM (inactive)	> 100 µM (inactive)		> 100 µM (inactive)	
